The values that follow are results of earlier work, collected in patent US20230045688A1 (priority 2020, published 2023).

Each structure is given as a SMILES string.

For this data set, the system named is SARS-CoV. Conditions: disruption of oligosaccharide formation; Vincent et al. 2005; Savarino et al. 2006.

Turning to `CCN(CC)CCCC(C)Nc1ccnc2cc(Cl)ccc12` (stereo not shown) [chloroquine], the SARS-CoV infectivity entry is listed as “significantly decreases SARS-CoV infectivity”.
